Experimental findings from patent US20030224034A1, “Personal care article and method for inhibiting attachment of yeast to skin” (priority 2002, published 2003) are described below.

SMILES strings stand for the structures.

For this experiment, the system named is Candida albicans (ATCC 10231). The experiment in a line: Visual release protocol: inhibition of C. albicans attachment to skin (tape strips and cyanoacrylate skin pulls), fluorescence microscopy cell count. The format is cell-based. Conditions: for % Inhibition of yeast attachment / 90 View Total (number of yeast cells) / AVG per view (number of yeast cells): 2% farnesol in TSB, 60 minutes at 33 degrees Celsius; for % Inhibition of yeast attachment: 100-((sample # of cells)/(control # of cells)x100); for 90 View Total (number of yeast cells) / AVG per view (number of yeast cells): view = 6000 um^2. How it is done:
Candida albicans (ATCC 10231) was used in this study. C. albicans was sub-cultured onto a Sabourads medium fortified with glucose (SAB-Dex) agar plate (Becton Dickinson, Cockeysville, Md.) overnight at 37 degrees Celsius. The following day, 2-3 isolated C. albicans colonies were inoculated into 20 ml SAB-Dex broth and incubated overnight shaken at 220 rpm at 32 degrees Celsius for 18 hours. The broth culture was diluted to 1×10^5 CFU/ml with phosphate buffer (VWR Industries, Batavia, Ill.).
The following protocol was used to measure the inhibition of C. albicans to skin (skin tape strips and cyanoacrylate skin pulls) by farnesol. Skin tape strips were made by pulling D-Squame skin sampling discs (CuDerm Corporation, Dallas, Tex.) four times from adjacent adult male volar forearm sites. Cyanoacrylate pulls were done by putting a small amount of super glue on the skin then placing a glass slide on the wetted surface. The glue was allowed to dry then the slide was removed, pulling off the stratum corneum. The tape strips and glue pulls (both will be referred to as strips in subsequent descriptions) were placed into deep six-well plates (Becton Dickinson, Franklin Lakes, N.J.). The strips were then blocked with 2.0 ml of 5% Bovine Serum Albumin (BSA) (Sigma, St. Louis, Mo.) in PBS buffer (150 mM NaCl, 50 mM Potassium Phosphate (KP), pH 7.4) for 60 minutes at 33 degrees Celsius while shaking at 220 rpm.
Next, each well's fluid was removed and 1.0 ml (10^5 Colony Forming Units (CFU)/ml) C. albicans was added to each strip. Then, 1.0 ml of Trypticase Soy Broth (TSB) [Difco Labs, Detroit, Mich.] containing 2% farnesol (DRAGOCO, Totowa, N.J.) was added to each strip, and the plates incubated at 33 degrees Celsius for 60 minutes. The fluid was aspirated, and the strips were washed 3 times with 3.0 ml PBS. Both sides of each tape strip were washed with a stream of PBS then placed in fresh 6-well plates.
Each strip was fixed by adding 2.0 ml of 2.5% Glutaraldehyde (Sigma Chemical, St. Louis, Mo.) to each of the wells of the 6-well plates for 10 minutes. The tape strips were then washed 3 times with 3.0 ml distilled water and stained by adding 0.5 ml Calcofluor White (Difco, Ann Arbor, Mich.) to the wells for 10 to 15 minutes. The tape strips were again washed 3 times with distilled water and then flooded with 2 ng/ml Nile Red (Sigma Chemical, St. Louis, Mo.) and allowed to air dry.
Once the tape strips air-dried, the yeast cells were enumerated automatically utilizing a Nikon Eclipse TE 300 fluorescent microscope fitted with a DAPI excitation filter and a Triple Pass barrier filter (Tokyo, Japan). The counting procedure was automated (Table 1 and Table 2) through the use of MetaMorph (Universal Imaging, Dowingtown, Pa.) software such that each sample had 30 views. Each image view was a 6000 um^2. The total field of view was approximately 25% of the total tape strip and 75% of the cyanoacrylate pull. The percent inhibition was calculated as follows: 100-((sample # of cells)/(control # of cells)×100). Approximately 10^4 yeast cells bound to a 22-mm diameter D-Squame tape strip under these conditions.

The mark [1] stands for this setting: Cyanoacrylate pull of human volar forearm skin.
[2] abbreviates: Tape strip of human volar forearm skin.

For the molecule `CC(C)=CCCC(C)=CCCC(C)=CCO` [Farnesol, 3,7,11-trimethyl-2,6,10-dodecatrien-1-ol], the “% Inhibition of yeast attachment” value under setting [1] is reported as 93.8%; the “% Inhibition of yeast attachment” value (Cyanoacrylate pull of human volar forearm skin, listed as farnesol) is 94%; the “% Inhibition of yeast attachment” value under setting [2] was determined as 63.8%; the “% Inhibition of yeast attachment” value (Tape strip of human volar forearm skin, listed as farnesol) is listed as 64%. Moreover, the “90 View Total (number of yeast cells)” value reads like this: under setting [1], 955; under setting [2], 6963. In addition, the “AVG per view (number of yeast cells)” value was determined as 10.6 under setting [1] and 77.4 under setting [2]. The “inhibition of the attachment of yeast to skin (in words)” value (farnesol at a concentration of 2%) was “effectively inhibit the attachment of yeast to skin”.
